Experimental data taken from patent US20250249110A1, “ANTIMICROBIAL PEPTIDE DERIVATIVE AND USE THEREOF” (SICHUAN UNIVERSITY, priority 2016, published 2025).
Where a SMILES comes first, the peptide text is derived from it. The star is where a group is joined. Succinyl(4-O-cholesteryl) = CC(C)CCC[C@@H](C)[C@H]1CC[C@H]2[C@@H]3CC=C4C[C@@H](OC(=O)CCC(=O)*)CC[C@]4(C)[C@H]3CC[C@]12C

How the values were obtained:
splenic lymphocytes = assay: Cellular immune response of splenic lymphocytes (intracellular cytokine flow cytometry); type: cell-based, mouse; conditions: spleen of immunized mice, OVA restimulation
From the text: […]

red blood cells = assay: Hemolysis test in vitro; type: cell-based, human (healthy volunteers)
Experimental: In the hemolysis test, DP7 and DP7-C at the same concentration were detected for the hemolysis of red blood cells. • 1. Take the blood of healthy volunteers and put into an anticoagulant tube and gently mix. • 2. Take out the anticoagulant, add isometric physiological saline, mix slowly and evenly, centrifuge at 400×g for 10 min, and discard the supernatant. • 3. Slowly mix the red blood cells and wash with PBS, centrifuge at 400×g for 10 min, discard the supernatant, and wash the cell precipitate with PBS for three times. • 4. Dilute with PBS to obtain 20% (v/v) red blood cell solution, which can be used immediately or stored at 4° C. for about 2 weeks (without hemolysis). • 5. Dilute the drug into a series of concentration gradients with PBS, add 100 μL of drug into a 96-well plate, take 100 μL of 2% Twain 20 as the positive control, add 100 μL of PBS to the negative control. Repeat the process 3 times for each concentration of drug. • 6. Dilute 20% (v/v) of red blood cell solution with PBS according to the volume ratio of 1:20, mix evenly and add to a 96-well plate, with the drug concentration of 100, 200, 400, 600, 800, 1000, 1200, 1600 μg/mL respectively, and incubate at 37° C. for 1 h. • 7. Incubate the mixture of drugs and red blood cells, centrifuge at 900×g for 10 min, add 160 μL of the supernatant to a new 96-well plate, and read the absorbance value at OD 450 nm. • 8. According to the absorbance value of A450, calculate the percentage of hemolysis corresponding to each concentration of drugs.
The calculation formula of the percentage of hemolysis is: […]

B16 mouse melanoma cells = assay: FAM-siRNA transfection efficiency in vitro, B16; type: cell-based; conditions: FAM-siRNA 1 μg, flow cytometry
Experimental: In 24 h before transfection, the C26 mouse colon cancer cells or B16 mouse melanoma cells are laid in a 6-well plate with a density of 5×10^4 cells per well, and 2 ml of DMEM medium containing 20% FBS is added to each well. FAM-modified no-sense siRNA (FAM-siRNA) is used as a reporter gene to detect transfection efficiency, while PEI25K and Lipofectamin2000 are used as positive controls. During transfection, the medium is firstly replaced with 1 ml of serum-free DMEM medium. Subsequently, the gene transfection complexes mixed at different proportions are added to each well, and each complex contains 1 μg of FAM-siRNA. Among them, the ratio of siRNA/DP7-C, siRNA/PEI25K and siRNA/Lipofectamin2000 is 1:5, 1:2 and 1:2 respectively. After the medium is incubated at 37° C. for 4 h, it is replaced by DMEM medium supplemented with 20% FBS and sequentially incubated. After 24 h, the transfection is observed under a microscope and photographed. All cells in the wells including floating and adherent cells are collected, washed twice with precooled PBS, and the total fluorescence intensity of each group is counted by flow cytometer (EPICS Elite ESP, USA).

[1] = tested on: macrophages, neutrophils and monocytes in the abdominal cavity; assay: Detection of activated immune-related cells in abdominal cavity (flow cytometry); type: in vivo, mouse; conditions: 24 h after 200 μL of 1 mg/mL i.p.
Experimental: Grouping: The mice are randomly divided into two groups (NS group and DP7-C group) with 5 mice in each group.
Each mouse in the DP7-C group is given 200 μL of 1 mg/mL DP7-C, while each mouse in the NS group is injected with 200 μL of normal saline. The mice of both groups are killed 24 h later. Each mouse is intraperitoneally injected with 5 mL of normal saline. By gently massaging the abdomen, the ascites in the abdominal cavity is aspirated to calculate the cell concentration and total cell count there. The lymphocyte typing of the ascites is detected by a flow cytometry, the percentage of macrophages, neutrophils and inflammatory monocytes in total cells is analyzed, and the number of macrophages, neutrophils and inflammatory monocytes is calculated according to the results of flow cytometry and the total number of cells in ascites.

For CC[C@H](C)[C@H](NC(=O)[C@H](CCCNC(=N)N)NC(=O)[C@H](Cc1c[nH]c2ccccc12)NC(=O)[C@H](CCC(N)=O)NC(=O)[C@@H](NC(=O)CCC(=O)O[C@H]1CC[C@@]2(C)C(=CC[C@H]3[C@@H]4CC[C@H]([C@H](C)CCCC(C)C)[C@@]4(C)CC[C@@H]32)C1)C(C)C)C(=O)N[C@@H](CCCNC(=N)N)C(=O)N[C@H](C(=O)N[C@@H](C)C(=O)N[C@H](C(=O)N[C@H](C(=O)N[C@@H](CCCNC(=N)N)C(=O)N[C@@H](CCCCN)C(N)=O)[C@@H](C)CC)C(C)C)C(C)C [DP7-C, Chol-suc-VQWRIRVAVIRK-NH2] ({Succinyl(4-O-cholesteryl)}-VQWRIRVAVIRK-NH2), the “percentage of CD4+/IFN-γ+, CD8+/IFN-γ+ and CD4+/IL-17A+ cells” value (splenic lymphocytes) was “increased”, the “appearance of hemolysis test” value (red blood cells; FIG. 5B) was “red blood cells are not lysed” and the “degree of lysis to red blood cells” value (red blood cells; drug concentration more than 0.8 mg/mL, 37° C. 1 h) was “much less than DP7”. For the same molecule, the transfection efficiency (B16 mouse melanoma cells) was 53.3 ± 4.0%, the “total number of cells in the abdominal cavity” value [1] was “increased significantly” and the percentage of monocytes ([1]; abdominal cavity, NS 2.7%) was 32.8%. The percentage of macrophages ([1]; abdominal cavity, NS 38.8%) was 50.8%.
